Non-standard residues stand in square brackets, D forms with d. Sec = N[C@@H](C[SeH])C(=O)O
Tests used:
Format in all cases: cell-based, human
[1] = tested on: Dami cells; assay: Cell death induced by fatty acid in serum free culture of Dami cells; details: for induction of cell death: 10 μM, serum free culture in the absence of selenoprotein P; for effective concentration inhibiting cell death: in the presence of 4 μM linoleic acid
Experimental: To 1 ml Dami cells (1×10^6 cells/dish/3 ml), which can be subcultured in serum free medium SFO3 (manufactured by Sanko Jun-yaku K. K.) containing 0.05 μM 2ME and 0.1% BSA, was added 2 ml 1:2:2 mixed medium (SA medium) of RPMI 1640/D-MEM/F-12. The cells were cultured for three days and recovered for assay. The cells were washed twice with SA/0.05% fatty acid free BSA (manufactured by Wako Jun-yaku K. K.) and suspended at 3×10^4 cells/ml in the same medium containing 2 to 16 μM arachidonic acid, linoleic acid or linolenic acid. The cell suspension was added to a 96-well plate in each 198 μl for wells for sample addition or in each 100 μl for wells for serial dilution.
To the wells for sample addition was added each 2 μl of 100 μM assay sample and, after stirring, a serial dilution was made with the wells containing 100 μl cell suspension. The plate was incubated at 37° C. in CO2 incubator for 4 to 5 days.

[2] = tested on: Dami cells; assay: Comparison with other antioxidants: cell death in serum free culture of Dami cells in the presence of HSA
Experimental: It was estimated to what extent vitamin E, known as being useful as an antioxidant to lipid oxidation, and catalase, acting for removal of hydrogen peroxide, could inhibit cell death induced in the assay system of the present invention while serum free culture in the presence of HSA.
(§1) To 1 ml Dami cells (1×10^6 cells/dish/3 ml), which can be subcultured in serum free medium SFO3 (manufactured by Sanko Jun-yaku K. K.) containing 0.05 μM 2ME and 0.1% BSA, was added 0.2 ml 1:2:2 mixed medium (SA medium) of RPMI 1640/D-MEM/F-12. The cells were cultured for three days and recovered for assay. The cells were washed twice with 50% PBS/SA/0.03% HSA (manufactured by SIGMA) and suspended in the same medium at 3×10^4 cells/ml. The cell suspension was added to a 96-well plate in each 190 μl for wells for sample addition or in each 100 μl for wells for serial dilution.
To the wells for sample addition was added each 10 μl of assay sample, i.e. 20 μM vitamin E, catalase or the selenoprotein P fragment and, after stirring, a serial dilution was made with the wells containing 100 μl cell suspension. The plate was incubated at 37° C. in CO2 incubator for 4 to 5 days followed by estimation. For estimation, a sample concentration necessary for cell death inhibition was compared to each other on Day 4 and thereafter. […] The selenoprotein P fragment could inhibit cell death up to 60 pM. From the fact that vitamin E did inhibit cell death in the assay system of the present invention, it was estimated that peroxidization of fatty acids bound to HSA (SIGMA) might be responsible for cell death induction. Moreover, it was expected that the selenoprotein P fragment, which inhibited cell death more effectively than vitamin E, would also act much more efficiently to events to which vitamin E was know to be effective.

[3] = tested on: Dami cells; assay: Cell death-inhibitory activity in Dami cells, serum free culture with HSA, serial dilution
Text: For screening factors having the cell death-inhibitory activity, a culture system needs to be established where cell death is induced. […] A diluted sample of active fractions may be added to this culture system to thereby estimate the cell death-inhibitory activity.
Based on the assay system as described above, the present inventors have aimed at components within the living body, especially those derived from blood, and thoroughly investigated for searching the activity of interest. […] For the purpose of quantification of the cell death-inhibitory activity as used herein, dilution of not more than 100-folds is indicated as “0” while in case of dilution of more than 100-folds, a figure of said dilution per se is used for indicating the activity.
as §1, with “(described in Greenberg S. M. et al., Blood, vol. 72, p. 1968–1977 (1988); 1×10^6” for “(1×10^6”, “2” for “0.2”, “200” for “190”, “dilution. To the wells for sample addition was added 2 μl assay sample and, after stirring, a serial dilution was made with the wells containing 100 μl cell suspension. The plate was incubated at 37° C. in CO2 incubator for 4 to 5 days followed by estimation.” for “dilution.”

## docosadienoic acid
[1]
  induction of cell death: induced cell death

## CCCCC/C=C\C/C=C\C/C=C\C/C=C\CCCCCC(=O)O [adrenic acid]
[1]
  induction of cell death: induced cell death

## vitamin E
[2]; 60 nM
  inhibition of cell death at 60 nM: could not
[2]; Day 4 and thereafter, serial dilution
  sample concentration up to which cell death is inhibited: 125 nM
[1]
  effective concentration inhibiting cell death: about 100 nM

## CCCCC/C=C\C/C=C\C/C=C\C/C=C\CCCC(=O)O [arachidonic acid]
[1]
  induction of cell death: induced cell death

## CCCCC/C=C\C/C=C\C/C=C\CCCCCCC(=O)O [dihomo-γ-linolenic acid]
[1]
  induction of cell death: induced cell death

## superoxide dismutase
[3]; each 70 μM of the samples
  cell death-inhibitory activity (in words): some activity
  cell death-inhibitory activity relative to the peptide fragment of the present invention: about 1/100
[3]; each 70 μM of the samples, listed as SOD
  cell death-inhibitory activity relative to the peptide fragment of the present invention: 1/100

## catalase
[2]; serial dilution from 20 μM sample
  cell death-inhibitory activity (in words): no cell death-inhibitory activity

## eicosadienoic acid
[1]
  induction of cell death: induced cell death

## docosatrienoic acid
[1]
  induction of cell death: induced cell death

## CCCCC/C=C\C/C=C\CCCCCCCC(=O)O [linoleic acid]
[1]
  induction of cell death: induced cell death

B1: Full-length selenoprotein P: full-length selenoprotein P prepared from plasma with the antibody affinity column (protein)
chain: ESQDQSSLCKQPPAWSIRDQDPMLNSNGSVTVVALLQAS[Sec]YLCIIEASKLEDLRVKLKKEGYSNISYIVVNHQGISSRLKYTHLKNKVSEHIPVYQQEENQTDVWTLLNGSKDDFLIYDRCGRLVYHLGLPFSFLTFPYVEEAIKIAYCEKKCGNCSLTTLKDEDFCKRVSLATVDKTVETPSPHYHHEHHHNHGHQHLGSSELSENQQPGAPNAPTHPAPPGLHHHHKHKGQHRQGHPENRDMPASEDLQDLQKKLCRKRCINQLLCKLPTDSELAPRS[Sec]CCHCRHLIFEKTGSAIT[Sec]QCKENLPSLCS[Sec]QGLRAEENITESCQ[Sec]RLPPAA[Sec]QISQQLIPTEASAS[Sec]R[Sec]KNQAKK[Sec]E[Sec]PSN
modifications: ends and bridges not checked
[3]; Table 3, activity per protein
  Specific activity: <2500
[3]; Table 3, fold dilution up to which cells survive
  Activity: <100
[3]; purified with anti-selenoprotein P antibody column
  cell death-inhibitory activity per proteins compared with the fragment: much lower
[1]
  effective concentration inhibiting cell death: about 100 nM
